How the values were obtained:
Format in all cases: cell-based, human
SNCA-UTR-Luciferase = experiment: SNCA-UTR luciferase reporter assay; settings: Homo sapiens, M-HeLa; 2 μM; HeLa cells; read-out: decrease of luminescence signal
Excerpt: Plasmid constructs and establishment of reporter gene overexpressing cells. Construction of pIRES-Luc-EGFP-puro plasmid and pCDH-α-syn-5′-UTR-Luc-EGFP-puro plasmid used in 5′ UTR-luciferase-based selectivity assay were previously described.^4 Briefly, In-Fusion PCR cloning system (Takara Bio, Mountain View, CA, USA) was used for all plasmid constructions per the manufacturer's instructions. To ensure sequence accuracy, all plasmids generated in this study were confirmed by sequencing.
Luciferase assay. The effect of compounds on translation of SNCA IRE-containing transcript was measured by using a luciferase reporter assay. HeLa cells (~60% confluency) were transfected with plasmids (2 μg per 60 mm dish) by using JetPrime (Polyplus Transfection) according to the manufacturer's recommended procedures. Approximately 16 h after transfection, the transfection cocktail was removed, and the cells were trypsinized and seeded to 96-well plates (8,000 cells per well). After 6 h, cells were treated as described in Cell Culture. To measure the luciferase signals, the cells were then washed with 1× DPBS, and luciferase activity in each well was measured by using the ONE-Glo Luciferase Assay System (Promega) per the manufacturer's instructions. Luminescence from firefly luciferase reaction was measured using a Biomek FLx800 plate reader.

SH-SY5Y cells = experiment: proteome-wide analysis in SH-SY5Y cells; settings: for number of proteins downregulated / number of proteins upregulated / protein expression of seven genes enriched by Syn-CLIP (global proteomics) / number of proteins affected / percent of proteins affected: 2 μM; for number of proteins affected: of 3,436 (Syn-RiboTAC) or 2,813 (Synucleozid-2.0) proteins detected; for percent of proteins affected: of proteins detected
Experimental: Treatment of SH-SY5Y cells with Syn-RiboTAC for proteome-wide studies. SH-SY5Y cells were seeded in 6-well plates (~60% confluency) and treated with vehicle (0.1% (v/v) DMSO) or Syn-RiboTAC as described above. After 48 h, the cells were gently washed twice with 1× DPBS, harvested by scraping, and resuspended in 1× DPBS. They were then lysed by sonication. Protein concentrations were determined by using BCA Protein Assay Kit (Pierce Biotechnology). Reduction of […]-synuclein protein levels by Syn-RiboTAC were confirmed by Western blotting as described above. Protein samples were then denatured in 50 mM NH4HCO3, pH 8, containing 6 M urea and then reduced with 10 mM TCEP (tris(2-carboxyethyl)phosphine hydrochloride) for 30 min. The proteins were then alkylated with 25 mM iodoacetamide for 30 min in dark. Samples were diluted to 2 M urea containing 50 mM NH4HCO3, pH 8, and digested with trypsin (Thermo Scientific, 1.5 μL of 0.5 μg/μL) containing 1 mM CaCl2) (100× stock in water) at 37° C. for 12 h. Samples were acidified by adding acetic acid to a final concentration of 5% (v/v), desalted by using a self-packed C18 spin column, and dried. Samples obtained were analyzed by LC-MS/MS(as described below), and the MS data were processed with MaxQuant (as described below).
LC-MS/MS analysis and MaxQuant analysis. Peptides obtained above were resuspended in water containing 0.1% (v/v) formic acid and analyzed by using EASY-nLC 1200 nano-UHPLC coupled to Q Exactive HF-X Quadrupole-Orbitrap mass spectrometer (Thermo Scientific). Parameters for the chromatography column and elution methods were the same as previously described.^4 MS data were analyzed by using MaxQuant 14 (V1.6.1.0) and then searched against the human proteome (Uniprot) and a common list of contaminants (included in MaxQuant). The false discovery rate (FDR) for proteins, peptides and sites identification was set at 1%. Parameters were the same as described previously.^4

[1] = tested on: seven proteins encoded by genes enriched by Syn-CLIP; experiment: Western blot validation of seven proteins encoded by transcripts enriched by Syn-CLIP; settings: 2 μM, 48 h; SH-SY5Y
Experimental: Western blotting. After 48 h, cells were gently washed with ice-cold 1× DPBS, and total protein was extracted with Mammalian Protein Extraction Reagent (M-PER, Thermo Scientific) per the manufacturer's protocol. After quantifying protein concentration by using BCA Protein Assay Kit (Pierce Biotechnology), ~30 μg of total protein for each sample was separated using a 10% SDS-polyacrylamide gel and transferred onto a PVDF membrane. The membrane was fixed with 0.4% paraformaldehyde (pH=7.0) for 30 min at room temperature^9 and then blocked with 5% (w/v) non-fat dry milk in 1× TBST (1× TBS containing 0.1% Tween-20) for 1 h at room temperature. […] After washing 10 min each with 1× TBST three times, immunocomplex signals of each protein were detected by using a SuperSignal West Pico Chemiluminescent Substrate (Pierce Biotechnology) according to the manufacturer's protocol. The memebrane was then stripped by using 1× Stripping Buffer (200 mM glycine, pH 2.2, 4 mM SDS, 1% (v/v) Tween 20) at room temperature for 15 min, followed by blocking with 5% (w/v) non-fat dry milk at room temperature for 1 h. β-actin was used to normalize the levels of all proteins, measured by incubating with a primary antibody for β-actin (1:5000, 3700S from Cell Signaling Technology) at 4° C. overnight. […]

SMILES	inhibition at 2 µM (SNCA-UTR-Luciferase) [%]	enhancement in selectivity on the proteome vs Synucleozid 1.0 (SH-SY5Y cells)	number of proteins downregulated (SH-SY5Y cells)	number of proteins upregulated (SH-SY5Y cells)	protein expression of seven genes enriched by Syn-CLIP (global proteomics) (SH-SY5Y cells)	number of proteins affected (SH-SY5Y cells)	percent of proteins affected (SH-SY5Y cells) [%]	number of changed proteins that also showed the corresponding change at the transcript level (SH-SY5Y cells; of 194 changed proteins)	percent of changed proteins with corresponding transcript change (SH-SY5Y cells; of 194 changed proteins) [%]	effect on seven proteins by Western blot [1]
CCOC(=O)C1=C(Nc2ccccc2)S/C(=C\c2ccc(OCCOCCOCCOCCNC(=O)CCCOc3ccc(-n4c(SCC(=O)Nc5ccc6cn[nH]c6c5)nnc4-c4ccncc4)cc3)c(O)c2)C1=O [Syn-RiboTAC]	~40	~ 16 -fold	114	80	not significantly altered	194	0.56	86	44	did not affect these seven proteins
O=C(CSc1nnc(-c2ccncc2)n1-c1ccc(Br)cc1)Nc1ccc2cn[nH]c2c1 [Synucleozid-2.0]	~25	–	55	95	not significantly altered	150	0.53	–	–	did not affect these seven proteins

From patent US20260325655A1, “DECREASING THE INTRINSICALLY DISORDERED PROTEIN ALPHA-SYNUCLEIN’S LEVELS BY TARGETING ITS STRUCTURED MRNA WITH A RIBONUCLEASE TARGETING CHIMERA” (University of Florida Research Foundation, Incorporated, priority 2023, published 2026)
